# Measured values: patent US9408828B2, “(+)-3′-angeloyloxy-4′-keto-3′,4′-dihydroseselin for treating inflammation” (Hong Kong Baptist University, priority 2014, dated 2016)
# Assays:
# [1] = test system: IL-4; assay: ELISA of IL-4 in colon tissue, DSS-induced colitis; assay type: in vivo, C57BL/6 mice; details: compared with the DSS treatment group; increase in IL-4
# Description: (§1) Colon levels of cytokines are assayed using commercially available ELISA kits. Briefly, colon samples are homogenized in phosphate buffer containing 0.05% Tween-20, 0.1 mM phenylmethylsulfonyl fluoride, 0.1 mM benzethonium chloride, 10 mM EDTA, and 20 IU aprotinin A. The homogenates are centrifuged at 16000 g at 4° C. for 15 min, and the supernatants are collected for the determination of levels of the cytokines, IL-6, IL-4, TNF-α, and IFN-γ, according to the manufacturer's protocols. The amount of protein in each sample is measured by the Bradford method, using bovine serum albumin as a standard. The levels of each cytokine are evaluated in each sample and expressed in […].
# (§2) Colitis is induced in all groups except the control group. Pd-Ib and sulfasalazine are administered to mice from day 6 to day 12. On day 13, the mice are sacrificed, Data are expressed as mean±SEM, n=8 (*p<0.05, **p<0.01, ***p<0.001, compared with DSS model group).
# [2] = test system: NF-κB p65; assay: Immunofluorescence staining of NF-κB nuclear translocation; assay type: cell-based, murine; details: 5-20 μg/mL pretreatment 2 hours, LPS 1 μg/mL 20 hours
# Description: Data are derived from three independent experiments. Original magnification, 40×.
# Raw-Blue cells are cultured (20×10^4 cells/well) on glass coverslips and incubated for 24 hours. Cells are pretreated with various concentrations (5-20 μg/mL) of Pd-Ib for 2 hours. Then treated with LPS (1 μg/mL) for 20 hours. Subsequently, the coverslips are rinsed twice with PBS, and cells are fixed in 4% paraformaldehyde (PFA) in PBS at room temperature for 15 minutes. Cellular and nuclear membranes of the macrophages are permeabilized by treatment with 3% Triton X-100 in PBS for 15 minutes. After being blocked with 3% bovine serum albumin (BSA) in PBS for 1 hour, the cells is incubated with primary antibody in 3% BSA/PBS (1:500 dilution) at 4° C. overnight. After washing with PBS, the cells are incubated with the red-conjugated secondary antibody (1:500 dilution) in 3% BSA/PBS at room temperature for 1 hour and finally washed again for three time with PBS. Then, counter-staining is performed with DAPI (1:1,000 dilution) in 3% BSA/PBS nucleus with for 10 minutes. The cells are washed for three times with PBS, and then anti-fade mounting medium is added. Samples are observed under a fluorescence microscope.
# [3] = test system: IκB-α; assay: Western blot of IκB-α degradation in LPS-stimulated RAW-Blue cells; assay type: cell-based, murine; details: LPS 1 μg/mL, Pd-Ib 5, 10, 20 μg/mL, 20 h; compared to LPS-stimulated macrophage
# Description: Data are derived from three independent experiments and presented as mean±SEM. ^#Compared with control group. *P<0.05 is compared with LPS-alone group.
# (§3) After Raw-Blue cells are treated with LPS and Pd-Ib, whole cell extract is prepared with lysis buffer [1% Triton X-100, 0.1% SDS, 0.5% deoxycholate, 1 mM EDTA, 20 mM Tris (pH 7.4), 150 mM NaCl, 10 mM NaF, 1 mM Na3VO4, 0.1 mM phenylmethylsulfonyl fluoride and one protease inhibitor cocktail tablet (Roche, USA)]. Total protein concentration is measured using a protein assay kit, followed by centrifugation at 13,500 rpm for 15 minutes at 4° C., then 10-25 μg of protein from the supernatants is then separated on 10% sodium dodecylsulphate-polyacrylamide gel (SDS-PAGE) and transferred on to polyvinylidene difluoride membranes. After blocking with 5% skim milk powder in Tris-buffered saline-Tween (TBST; 50 mM Tris, 150 mM NaCl, pH 7.4; 0.01% Tween-20) for 1 hour at room temperature, the membrane is then incubated with primary antibody (1:5,000 dilution) in 5% skim milk in TBST overnight at 4° C. […] The membrane is rewashed (TBST; 3×10 min), and the immune-reactive proteins are detected by enhanced chemiluminescence using X-ray film and ECL reagent. The protein bands are quantified by measuring the relative intensity compared to the control using Image J Software (version 4.1.7, NIH, USA).
# [4] = test system: IL-6; assay: ELISA of IL-6 in colon tissue, DSS-induced colitis; assay type: in vivo, C57BL/6 mice; details: compared with the DSS treatment group
# Description: as §1, §2
# [5] = test system: TNF-α; assay: ELISA of TNF-α in colon tissue, DSS-induced colitis; assay type: in vivo, C57BL/6 mice; details: compared with the DSS treatment group
# Description: as §1, §2
# [6] = test system: iNOS; assay: Western blot of iNOS protein in LPS-stimulated RAW-Blue cells; assay type: cell-based, murine; details: LPS 1 μg/mL, 5, 10, 20 μg/mL, 20 h
# Description: Data are derived from three independent experiments and presented as mean±SEM. ^#Compared with control group. *P<0.05, **P<0.01 and ***P<0.001 are compared with LPS-alone group.
# as §3
# [7] = test system: IFN-γ; assay: ELISA of IFN-γ in colon tissue, DSS-induced colitis; assay type: in vivo, C57BL/6 mice; details: compared with the DSS treatment group
# Description: as §1, §2
structure (smiles),measurement,setting,value
"C/C=C(\C)C(=O)OC1C(=O)c2c(ccc3ccc(=O)oc23)OC1(C)C (single isomer, unassigned; (+)) [Pd-Ib, (+)-3′-Angeloyloxy-4′-keto-3′,4′-dihydroseselin]",production of IL-4 in colon tissue,[1],significant effect on the production of IL-4 in a dose-dependent manner
same,p65 nuclear translocation,[2],significantly inhibits the p65 nuclear translocation
same,IκB-α degradation,[3],inhibits IκB-α degradation in a dose-dependent manner
same,production of IL-6 in colon tissue,[4],greatly reduces the production
same,production of TNF-α in colon tissue,[5],greatly reduces the production
same,iNOS protein level,[6],strongly down-regulates
same,production of IFN-γ in colon tissue,[7],greatly reduces the production
